Data taken from PubChem BioAssay (NCI).
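Tested at 5 concentrations; 48 h exposure; 96-well plates; endpoints linearly interpolated, else capped at highest concentration. GI50 = concentration required for 50% inhibition of growth. TGI marks complete inhibition of growth.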

How the values were obtained:
Test in all cases: inhibition of tumour cell growth, NCI panel, 48 h
LOX IMVI melanoma = test system: LOX IMVI melanoma
SK-MEL-28 melanoma = test system: SK-MEL-28 melanoma
COLO 205 colon = test system: COLO 205 colon
ACHN renal = test system: ACHN renal
SF-295 CNS = test system: SF-295 CNS
HT29 colon = test system: HT29 colon
SW-620 colon = test system: SW-620 colon
SK-MEL-5 melanoma = test system: SK-MEL-5 melanoma
SK-OV-3 ovarian = test system: SK-OV-3 ovarian
CAKI-1 renal = test system: CAKI-1 renal

Compound `C=C(C)C1CC[C@]2(C(=O)O)CCC3(C)[C@H](CCC4[C@@]5(C)CC[C@H](OC6OC(CO)C(O)C6OC6OC(C)C(O)C(O)C6O)[C@@](C)(CO)C5CC[C@]43C)C12` (some centres undefined) has a TGI (LOX IMVI melanoma) of over 100 µM, a TGI (SK-MEL-28 melanoma) of over 100 µM and a TGI (COLO 205 colon) of over 100 µM. For the same compound, the TGI (ACHN renal) was over 100 µM, the TGI (SF-295 CNS) was over 100 µM and the TGI (HT29 colon) was over 100 µM. The TGI (SW-620 colon) was over 100 µM and the TGI (SK-MEL-5 melanoma) was over 100 µM.
`COCCOC(C)C(/C=N/NC(N)=S)=N/NC(N)=S` (centres undefined) showed a TGI (LOX IMVI melanoma) of over 100 µM, a GI50 (SK-MEL-28 melanoma) of over 100 µM and a TGI (SK-MEL-28 melanoma) of over 100 µM. For the same compound, the GI50 (SK-OV-3 ovarian) was over 100 µM, the TGI (SK-OV-3 ovarian) was over 100 µM and the GI50 (COLO 205 colon) was over 100 µM. For the same compound, the TGI (COLO 205 colon) was over 100 µM, the GI50 (CAKI-1 renal) was over 100 µM and the TGI (CAKI-1 renal) was over 100 µM. It also gave a GI50 (ACHN renal) of over 100 µM, a TGI (ACHN renal) of over 100 µM and a TGI (SF-295 CNS) of over 100 µM. The GI50 (SW-620 colon) was over 100 µM, the TGI (SW-620 colon) was over 100 µM and the GI50 (SK-MEL-5 melanoma) was over 100 µM. For the same compound, the TGI (SK-MEL-5 melanoma) was over 100 µM.
In the case of `COCCN1C2=CCCCC2=Nc2c(N)nc(N)nc21`, the TGI (LOX IMVI melanoma) is reported as over 100 µM, the TGI (SK-MEL-28 melanoma) is reported as over 100 µM and the TGI (SK-OV-3 ovarian) is reported as over 100 µM. The TGI (COLO 205 colon) was over 100 µM, the TGI (CAKI-1 renal) was over 100 µM and the TGI (ACHN renal) was over 100 µM. The TGI (SF-295 CNS) was over 100 µM, the TGI (HT29 colon) was over 100 µM and the TGI (SK-MEL-5 melanoma) was over 100 µM.
`C=CC(=O)Nc1cc2c(Nc3ccc(OCc4ccccn4)c(Cl)c3)ncnc2cc1OCCN1CCOCC1` gave a GI50 (LOX IMVI melanoma) of 1.81 µM, a TGI (LOX IMVI melanoma) of 5.83 µM and a GI50 (SK-MEL-28 melanoma) of 5.11 µM. The TGI (SK-MEL-28 melanoma) was 19.3 µM, the GI50 (COLO 205 colon) was 6.19 µM and the TGI (COLO 205 colon) was over 100 µM. The GI50 (CAKI-1 renal) was 1.86 µM, the TGI (CAKI-1 renal) was 19.7 µM and the GI50 (ACHN renal) was 0.201 µM. For the same compound, the TGI (ACHN renal) was over 100 µM, the GI50 (SF-295 CNS) was 4.87 µM and the TGI (SF-295 CNS) was over 100 µM. The GI50 (HT29 colon) was 4.04 µM, the TGI (HT29 colon) was over 100 µM and the GI50 (SW-620 colon) was 2.99 µM. It also gave a TGI (SW-620 colon) of 20.7 µM, a GI50 (SK-MEL-5 melanoma) of 3.8 µM and a TGI (SK-MEL-5 melanoma) of 14.3 µM.
Compound `Cc1cccc(NC(=O)CC2C(=O)Nc3ccccc3S2(=O)=O)c1C` (centres undefined) has a TGI (SK-MEL-28 melanoma) of over 100 µM, a TGI (SK-OV-3 ovarian) of 37.7 µM and a TGI (COLO 205 colon) of over 100 µM. The TGI (CAKI-1 renal) was over 100 µM, the TGI (ACHN renal) was 70.3 µM and the TGI (SF-295 CNS) was over 100 µM. It also gave a TGI (HT29 colon) of over 100 µM, a TGI (SW-620 colon) of 84.2 µM and a TGI (SK-MEL-5 melanoma) of 74.1 µM.
Work on `CC(=O)Nc1ccc(/C=c2\sc3nnc(/C=C/c4ccccc4)n3c2=O)cc1` yielded a TGI (LOX IMVI melanoma) of over 50 µM, a TGI (SK-MEL-28 melanoma) of over 50 µM and a TGI (SK-OV-3 ovarian) of over 50 µM. The TGI (COLO 205 colon) was over 50 µM, the TGI (CAKI-1 renal) was over 50 µM and the TGI (ACHN renal) was over 50 µM. The TGI (SF-295 CNS) was over 50 µM, the TGI (SW-620 colon) was over 50 µM and the TGI (SK-MEL-5 melanoma) was over 50 µM.
Work on `Clc1ccc2c(NCCCN3CCN(c4nc(-n5ccnc5)nc5ccccc45)CC3)ccnc2c1` yielded a GI50 (LOX IMVI melanoma) of 1.84 µM, a TGI (LOX IMVI melanoma) of 3.69 µM and a GI50 (SK-MEL-28 melanoma) of 1.8 µM. It also gave a TGI (SK-MEL-28 melanoma) of 3.34 µM, a GI50 (SK-OV-3 ovarian) of over 47.3 µM and a TGI (SK-OV-3 ovarian) of over 62.8 µM. For the same compound, the GI50 (COLO 205 colon) was over 100 µM, the TGI (COLO 205 colon) was over 100 µM and the GI50 (CAKI-1 renal) was 8.91 µM. It also gave a GI50 (ACHN renal) of over 23.4 µM, a TGI (ACHN renal) of over 56.5 µM and a GI50 (SF-295 CNS) of 1.88 µM. The TGI (SF-295 CNS) was 3.52 µM, the GI50 (HT29 colon) was 1.88 µM and the TGI (HT29 colon) was 4.47 µM. The GI50 (SK-MEL-5 melanoma) was 1.74 µM and the TGI (SK-MEL-5 melanoma) was 3.17 µM.
`C/C=C(/C)C(=O)OC1C=C(CO)C(=O)C(OC(=O)/C(C)=C\C)C1C(C)C` (centres undefined) was tested, and the GI50 (LOX IMVI melanoma) was 0.604 µM, the TGI (LOX IMVI melanoma) was 1.75 µM and the GI50 (SK-MEL-28 melanoma) was 1.39 µM. It also gave a TGI (SK-MEL-28 melanoma) of 2.8 µM, a GI50 (SK-OV-3 ovarian) of 2.27 µM and a TGI (SK-OV-3 ovarian) of 4.48 µM. For the same compound, the GI50 (COLO 205 colon) was 0.823 µM, the TGI (COLO 205 colon) was 2.75 µM and the GI50 (CAKI-1 renal) was 1.34 µM. For the same compound, the TGI (CAKI-1 renal) was 2.62 µM, the GI50 (ACHN renal) was 0.541 µM and the TGI (ACHN renal) was 1.69 µM. The GI50 (SF-295 CNS) was 1.82 µM, the TGI (SF-295 CNS) was 3.35 µM and the GI50 (HT29 colon) was 0.625 µM. It also gave a TGI (HT29 colon) of 2.33 µM, a GI50 (SK-MEL-5 melanoma) of 1.33 µM and a TGI (SK-MEL-5 melanoma) of 2.66 µM.
